The values below come from PubChem BioAssay (NCI).

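Results reflect a 48-hour exposure of cells in 96-well plates to compound at five concentrations. At the TGI there is no net growth.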

Some test systems named below: SK-MEL-5 melanoma; SN12C renal; 786-0 renal; SW-620 colon; NCI-H522 lung; NCI-H23 lung; HL-60(TB) leukemia; M14 melanoma; K-562 leukemia; HOP-92 NSCLC.
Experiment in all cases: inhibition of tumour cell growth, NCI panel, 48 h

On to `COc1ccc(/C=C2\CC3C4CC=C5C[C@@H](O)CC[C@]5(C)C4CC[C@]3(C)\C2=N\O)cc1OC` (stereo not given in full), for which the TGI was 45.1 µM in the assay on SK-MEL-5 melanoma; greater than 100 µM in the assay on SN12C renal; greater than 100 µM in the assay on 786-0 renal; greater than 100 µM in the assay with SW-620 colon; greater than 100 µM with NCI-H522 lung; greater than 100 µM in the assay with NCI-H23 lung. Moreover, the TGI in the assay with HL-60(TB) leukemia, in the assay with M14 melanoma, with K-562 leukemia and with HOP-92 NSCLC was greater than 100 µM in each case.

Turning to `C=C1C(=O)O[C@H]2C/C(C)=C/CC/C(C)=C/CC[C@@](C)(O)[C@@H](I)C[C@@H]12`, the TGI was determined as 28.2 µM in the assay on SK-MEL-5 melanoma; 18.1 µM in the assay with SN12C renal; 10.6 µM in the assay on 786-0 renal; 19.8 µM with SW-620 colon; 14.4 µM in the assay with NCI-H522 lung; 2.43 µM in the assay with NCI-H23 lung. The TGI with HL-60(TB) leukemia stood at 14.6 µM; in the assay with M14 melanoma, 24.8 µM; with K-562 leukemia it was 13.5 µM; in the assay on HOP-92 NSCLC, 9.82 µM.

As to `COc1ccc2c(c1)nc1n2C(N)=Nc2ccccc2S1`, the TGI in the assay on SK-MEL-5 melanoma was greater than 61.9 µM; with SN12C renal, greater than 100 µM; with 786-0 renal, greater than 34.1 µM; in the assay with SW-620 colon it was greater than 100 µM; in the assay on NCI-H522 lung, greater than 100 µM; in the assay on NCI-H23 lung, greater than 100 µM. Also, the TGI in the assay on HL-60(TB) leukemia was 6.95 µM; with M14 melanoma, greater than 80.6 µM; in the assay on K-562 leukemia, greater than 57.8 µM; in the assay with HOP-92 NSCLC, 63.5 µM.

Regarding `Cc1cc(Nc2ccc(N=Nc3ccc(O)c4ncccc34)cc2)nc(C)n1`, the TGI is 26.3 µM with SK-MEL-5 melanoma; greater than 88.2 µM with SN12C renal; 54.2 µM with 786-0 renal; greater than 66.5 µM with SW-620 colon; 55 µM in the assay with NCI-H522 lung; greater than 54.2 µM in the assay with NCI-H23 lung. In addition, the TGI was found to be 16.5 µM in the assay on HL-60(TB) leukemia, 36.1 µM in the assay with M14 melanoma, 39.1 µM with K-562 leukemia and 46.7 µM in the assay with HOP-92 NSCLC.

For `Cc1cc(NS(=O)(=O)c2ccc(NC(=O)c3cccc4c(NNc5ccc(S(=O)(=O)N=C(N)N)cc5)c5ccccc5nc34)cc2)no1`, the TGI is greater than 100 µM with SK-MEL-5 melanoma; greater than 100 µM with SN12C renal; greater than 100 µM in the assay with 786-0 renal; greater than 100 µM in the assay on SW-620 colon; 96.6 µM in the assay on NCI-H522 lung; greater than 100 µM with NCI-H23 lung. Moreover, the TGI was 75.6 µM in the assay on HL-60(TB) leukemia, greater than 100 µM in the assay with M14 melanoma, greater than 100 µM in the assay on K-562 leukemia and 92.7 µM with HOP-92 NSCLC.

In the case of `Cc1nccn1S(=O)(=O)c1ccc(Br)cc1Br`, the TGI in the assay with SK-MEL-5 melanoma is 43.9 µM; in the assay with SN12C renal, greater than 100 µM; in the assay with 786-0 renal, greater than 100 µM; in the assay on SW-620 colon, greater than 100 µM; in the assay with NCI-H522 lung it was 86.9 µM; in the assay with NCI-H23 lung it was greater than 100 µM. In addition, the TGI with HL-60(TB) leukemia is 51.5 µM; with M14 melanoma, 39.7 µM; in the assay on K-562 leukemia, greater than 100 µM; with HOP-92 NSCLC, 75.3 µM.

Take `N#CC(C#N)=Cc1c(O)ccc2ccccc12`: the TGI is 26.2 µM in the assay on SK-MEL-5 melanoma; 27.3 µM in the assay with SN12C renal; 33 µM with 786-0 renal; 34.5 µM in the assay on SW-620 colon; 29.2 µM in the assay on NCI-H522 lung; 26.9 µM with NCI-H23 lung. Besides, the TGI with HL-60(TB) leukemia was determined as 15.7 µM; with M14 melanoma, 28.3 µM; in the assay with K-562 leukemia it was 24.6 µM; with HOP-92 NSCLC, 23.4 µM.

For the compound `CC(NC1=NCCO1)c1cccc([N+](=O)[O-])c1` (stereo not given), the TGI in the assay on SK-MEL-5 melanoma, with SN12C renal, in the assay on 786-0 renal, with SW-620 colon, with NCI-H522 lung and with NCI-H23 lung was greater than 100 µM throughout. Moreover, the TGI in the assay with HL-60(TB) leukemia, in the assay on M14 melanoma, in the assay with K-562 leukemia and with HOP-92 NSCLC was greater than 100 µM throughout.

Take `COc1ccc(C(=C(I)c2ccccc2)c2ccc(OC)cc2)cc1`: the TGI in the assay with SK-MEL-5 melanoma, with SN12C renal, in the assay with 786-0 renal, with SW-620 colon, in the assay on NCI-H522 lung and in the assay with NCI-H23 lung was greater than 100 µM each time. The TGI in the assay with HL-60(TB) leukemia, in the assay on M14 melanoma, in the assay with K-562 leukemia and in the assay with HOP-92 NSCLC was greater than 100 µM throughout.

Regarding `O=c1[nH]c2cc3cccnc3c(Cl)c2nc1C(F)(F)F`, the TGI in the assay with SK-MEL-5 melanoma is 29.8 µM; in the assay on SN12C renal, greater than 100 µM; with 786-0 renal, greater than 100 µM; in the assay with SW-620 colon, greater than 100 µM; with NCI-H522 lung, greater than 100 µM; with NCI-H23 lung, greater than 100 µM. In addition, the TGI in the assay with HL-60(TB) leukemia is greater than 100 µM; in the assay with M14 melanoma, greater than 100 µM; in the assay on K-562 leukemia it was greater than 100 µM; with HOP-92 NSCLC, 60.5 µM.

For the compound `CC(=O)NC1=C(C)C(=O)c2c(nc3n2CCC3O)C1=O` (stereo not given), the TGI with SK-MEL-5 melanoma was greater than 100 µM; in the assay on SN12C renal, greater than 100 µM; with 786-0 renal, greater than 100 µM; in the assay on SW-620 colon it was greater than 100 µM; with NCI-H522 lung it was 68.2 µM; in the assay with NCI-H23 lung it was greater than 89.8 µM. For the same compound, the TGI is 44.2 µM in the assay on HL-60(TB) leukemia, greater than 100 µM in the assay with M14 melanoma, 44.3 µM in the assay on K-562 leukemia and 33.3 µM in the assay with HOP-92 NSCLC.
